Experimental data reported in patent publication US7544479B2, “Method for identifying MLK inhibitors for treatment of neurological conditions” (priority 1998, dated 2009).

B1: SEK1 (K54R): dominant negative mutant of SEK1, known to specifically block JNK activation; expressed from a vector (protein, UniProt P45985 2-399, looked up, variant K54R)
Dual specificity …: AAPSPSGGGGSGGGSGSGTPGPVGSPAPGHPAVSSMQGKRKALKLNFANPPFRSTARFTLNPNPTGVQNPHIERLRTHSIESSGKLKISPEQHWDFTAEDLKDLGEIGRGAYGSVNKMVHKPSGQIMAVKRIRSTVDEKEQKQLLMDLDVVMRSSDCPYIVQFYGALFREGDCWICMELMSTSFDKFYKYVYSVLDDVIPEEILGKITLATVKALNHLKENLKIIHRDIKPSNILLDRSGNIKLCDFGISGQLVDSIAKTRDAGCRPYMAPERIDPSASRQGYDVRSDVWSLGITLYELATGRFPYPKWNSVFDQLTQVVKGDPPQLSNSEEREFSPSFINFVNLCLTKDESKRPKYKELLKHPFILMYEERAVEVACYVCKILDQMPATPSSPMYVD
modifications: expressed from vector; dominant negative

Tests used:
NMDA receptor = conditions: rats given glutamate, quinolinic acid or kainic acid; cited from earlier work
HN33 cells [1] = conditions: for induction of apoptotic cell death of HN33 cells: glutamate 250 μM or kainic acid 200 μM
JNK = JNK activity in HN33 cell lysates (GST-c-Jun phosphorylation, Western blot); format: cell-based, rat; conditions: glutamate 250 μM or kainic acid 200 μM, room temperature, 15 minutes
HN33 cells [2] = test: TUNEL assay of apoptosis induced by expression of APP-C-100 in HN33 cells; format: cell-based, rat; conditions: 48 hours after transfection
Text: To determine the role of activation of the SEK1-JNK signal transduction pathway in Alzheimer's diseases, a cDNA fragment encoding the full-length (Kang, J., et al., Nature, 325:733-736 (1987)) or the last C-terminal 100 amino acid of amyloid precursor protein (APP) was inserted into pcDNA1 and the resulting plasmid was designated as APP-C-100. HN33 cells (60% of confluence) was transfected with pcDNA1 (control), wild-type APP, APP-C-100 by using lipofectin (Boehringer Mannheim) according to manufacture instruction. Thirty μl of lipofectin/50 mm plate was used in all transfection experiments. Twelve to seventy-two hours after transfection, HN33 cells were fixed with 4% paraformaldehyde and permeabilized with 0.1% of Triton X-100. […] TUNEL negative cells were counted under light microscope.
To further determine the role of activation of the JNK activation in Alzheimer's diseases, HN33 cells were transfected with pcDNA1, wild-type APP expression vector, or mutant SEK1 expression vector using lipofectin (Boehringer Mannheim) according to manufacture instruction. […] TUNEL negative cells (living cells) were counted.
To determine further the role of activation of the MLK activation in Alzheimer's diseases, HN33 cells were co-transfected with pcDNA1, wild-type expression vector, with kinase dead MLK2 expression vector. […] TUNEL negative cells (living cells) were counted.

HN33 cells [3] = test: TUNEL assay of apoptosis induced by expression of MLK2 in HN33 cells; format: cell-based, rat; conditions: co-transfection with wild-type MLK2; 48 hours after transfection
Text: To examine whether expression of MLK2 induces neuronal cell death, HN33 cells were transfected with pRK5CMV, wild-type or kinase dead MLK2 expression vector using lipofectin (Boehringer Mannheim) according to manufacture instruction. Forty-eight hours after transfection, cells were fixed and stained with TUNEL, as described above. TUNEL negative cells (living cells) were counted.
To determine whether the role of the SEK1-JNK signal transduction pathway in neuronal cell death induced by expression of MLK2, HN33 cells were co-transfected with pEBG+pRK5CMV (control), wild-type SEK1 expression vector+wild-type MLK2 expression vector, or dominant negative mutant SEK1 (K54R) expression vector+wild-type MLK2 expression vector. Forty-eight hours after transfection, cells were fixed and stained with TUNEL. TUNEL negative cells (living cells) were counted.

Molecule | induction of apoptotic cell death of HN33 cells (HN33 cells [1]) | JNK activity (JNK) | also measured
C[C@]12N[C@H](Cc3ccccc31)c1ccccc12 [MK-801] |  |  | induction of c-Jun expression and neuronal apoptosis (NMDA receptor): blocked
C=C(C)[C@H]1CN[C@H](C(=O)O)[C@H]1CC(=O)O [kainic acid] | apoptotic cell death | induced elevation of the JNK activity | 
N[C@@H](CCC(=O)O)C(=O)O [glutamate] | apoptotic cell death | induced elevation of the JNK activity | 
B1 |  |  | apoptosis induced by glutamate or kainate receptor activation, effect of expression (HN33 cells [1]; 250 μM glutamate or 200 μM kainate for six hours, 48 hours after transfection): blocks; apoptosis induced by expression of APP-C-100, effect of co-expression (HN33 cells [2]): blocks; apoptosis induced by MLK expression, effect of co-expression (HN33 cells [3]): attenuated
